Data set [1] can be described thus: Stability of screened solid forms with time. Type of data set: physicochemical. The protocol: Form C9 was only exclusively obtained using chloroform as a solvent, which solvent is not suitable for industrial manufacturing of a drug according to regulatory requirements. These solid forms are consequently not suitable for industrial manufacturing of a drug.
Amorphous Avatrombopag maleate (200 mg) was suspended in methanol (10 mL) at room temperature, and stirred for 15 hours, filtered and dried in the air. […] After 24 hours, the solid was analyzed by PXRD again - only form beta was observed. ^1H NMR analysis of said solid form indicated the presence of methanol in the crystalline form. In order to remove the methanol to obtain an anhydrous form, form beta was dried in vacuum for 2 hours at 70°C. After said desolvation step, crystalline forma alpha was obtained.

The conditions of data set [2]: in vivo; cited from earlier work.
The conditions of data set [3]: pH 1 to 11; cited from earlier work.
A short description of data set [4]: Solid form stability in climatic chamber at 40°C and 75% RH, monitored by PXRD. In kind it is physicochemical. The following applies: 40°C and 75% RH, 1, 5 and 13 days. The text has this:
(§1) The Powder X-Ray diffraction (PXRD) patterns were acquired on a Bruker D8 Advance Series 2Theta/Theta powder diffraction system using CuKα1-radiation operated at 40 kV and 40 mA in transmission geometry. The system is equipped with a VÅNTEC-1 single photon counting PSD, a Germanium monochromator, a ninety positions auto changer sample stage, fixed divergence slits and a radial soller. Programs used: Data collection with DIFFRAC plus XRD Commander V.2.5.1, and evaluation with High Score Plus 4.9 (Malvern PANalytical B.V.). Measurement conditions: The samples were measured in a range from 4 to 40° in 2θ in a 6 or 30 minutes measurement using an angular step of 0.05° and a time per step of […]. Sample preparation: 20 mg of non-manipulated sample were prepared in standard sample holders using two foils of polyacetate
A sample of Crystalline Form Alpha of Avatrombopag maleate was stored for 13 days in a climatic chamber at 40°C and 75% RH, and the solid form was monitored by PXRD.

A short description of data set [5]: Thermal stability at 90 °C for 24 hours, PXRD and 1H NMR. Type of data set: physicochemical. As to conditions: open or closed vial.
Description: as §1
Proton nuclear magnetic resonance analyses (^1H NMR spectroscopy) were recorded in a Bruker 300 NMR spectrometer, equipped with a z gradient 5 mm BBO (Broadband Observe) probe with ATM and an automatic autosampler. Measurement conditions: The samples were analysed at room temperature. Sample preparation: Approximately 2-5 mg of sample were dissolved in 0.7 mL of deuterated solvent (dimethylsulfoxide-d6).

Data set [6] can be described thus: Hygroscopicity by Dynamic Vapor Sorption analysis. In kind it is physicochemical. The following applies: for gain of weight by absorption of water: 25°C. The protocol:
Dynamic Vapor Sorption Analysis (DVS) were performed in a Mettler Toledo TGA / DSC 1 LF instrument equipped with a LF SDTA FRS2 sensor and coupled with a Modular Humidity Generator MHG 32. Data collection and evaluation was done with STARe software. Measurement conditions: The samples were analysed following a humidity cycle from 20%RH up to 80%RH, down to 3%RH, up to 90 and down to 3%RH in 10% steps of 30 minutes at 25°C. Sample preparation: Approximately 5-10 mg of sample were weighed (using a MX5 Mettler Toledo microbalance) into 150 µL platinum crucibles without lid.

Counter-ions that a name gives are not always drawn.

In the case of `O=C(Nc1nc(-c2cc(Cl)cs2)c(N2CCN(C3CCCCC3)CC2)s1)c1cnc(N2CCC(C(=O)O)CC2)c(Cl)c1.O=C(O)/C=C\C(=O)O` [Form C11, Avatrombopag maleate], the “stability of the solid form with time” value in data set [1] (listed as C11) is “unstable”.

In the case of `O=C(Nc1nc(-c2cc(Cl)cs2)c(N2CCN(C3CCCCC3)CC2)s1)c1cnc(N2CCC(C(=O)O)CC2)c(Cl)c1.O=C(O)/C=C\C(=O)O` [Form C22, Avatrombopag maleate], the “stability of the solid form with time” value in data set [1] (listed as C22) is “lose crystallinity with time”.

Take `O=C(Nc1nc(-c2cc(Cl)cs2)c(N2CCN(C3CCCCC3)CC2)s1)c1cnc(N2CCC(C(=O)O)CC2)c(Cl)c1.O=C(O)/C=C\C(=O)O` [Form gamma, Avatrombopag maleate]: in data set [1] (listed as form gamma), the “stability of the solid form with time” value is on record as “spontaneously converted into form beta with time”.

As for `O=C(Nc1nc(-c2cc(Cl)cs2)c(N2CCN(C3CCCCC3)CC2)s1)c1cnc(N2CCC(C(=O)O)CC2)c(Cl)c1` [Form C, Avatrombopag maleate], the oral absorption result in data set [2] is reported as “excellent oral absorption”.

For `O=C(Nc1nc(-c2cc(Cl)cs2)c(N2CCN(C3CCCCC3)CC2)s1)c1cnc(N2CCC(C(=O)O)CC2)c(Cl)c1.O=C(O)/C=C\C(=O)O` [Form A, Avatrombopag maleate], the oral absorption entry in data set [2] is “excellent oral absorption”.

Regarding `O=C(Nc1nc(-c2cc(Cl)cs2)c(N2CCN(C3CCCCC3)CC2)s1)c1cnc(N2CCC(C(=O)O)CC2)c(Cl)c1.O=C(O)/C=C\C(=O)O` [Avatrombopag maleate], the aqueous solubility result in data set [3] is reported as “practically insoluble”.

Take `O=C(Nc1nc(-c2cc(Cl)cs2)c(N2CCN(C3CCCCC3)CC2)s1)c1cnc(N2CCC(C(=O)O)CC2)c(Cl)c1.O=C(O)/C=C\C(=O)O` [Form C5, Avatrombopag maleate]: in data set [1] (listed as C5), the “stability of the solid form with time” value is listed as “lose crystallinity with time”.

On to `O=C(Nc1nc(-c2cc(Cl)cs2)c(N2CCN(C3CCCCC3)CC2)s1)c1cnc(N2CCC(C(=O)O)CC2)c(Cl)c1` [Form B, Avatrombopag maleate], for which the oral absorption entry in data set [2] was “inferior oral absorption”.

Regarding `O=C(Nc1nc(-c2cc(Cl)cs2)c(N2CCN(C3CCCCC3)CC2)s1)c1cnc(N2CCC(C(=O)O)CC2)c(Cl)c1` [Form alpha, Avatrombopag maleate], in data set [4], the “solid form (PXRD) after storage” value is “preserves its solid form”. For the same compound, the “solid form (PXRD, 1H NMR) after heating” value in data set [5] is listed as “preserves its solid form”. For the same compound, the “solid form (PXRD) before and after DVS analysis” value in data set [6] (exposure to relative humidity as high as 90%) was “preserves its solid form”. The “gain of weight by absorption of water” value in data set [6] (relative humidity of 70%) is recorded as “below 0.3%”; in data set [6] (relative humidity of 80%), “below 0.4%”; in data set [6] (relative humidity of 90%), “below 0.7%”.
